Tests used:
BxPC3 cells = assay: Cellular proliferation / cell survival micro-cytotoxicity; format: cell-based, Human
[1] = system: AKT phosphorylation at Ser473 in BxPC3 cells; assay: Detection of pAKT; format: cell-based, Human; settings: 10 μM, 4 h

CCCCCCCCCCCCc1ccc(S(=O)(=O)Nc2ccccc2)cc1 [Compound 45]
Inhibition of BxPC-3 cell proliferation, in words (BxPC3 cells): did inhibit BxPC-3 cell proliferation
Inhibition of AKT phosphorylation at Ser473 (pAKT), in words [1]: did not inhibit the production of pAKT

From PMC3088502 (Bioorganic & medicinal chemistry, 2011)
